Assay results from ChEMBL document CHEMBL3046032, “Synthesis and biological evaluation of novel AM80 derivatives as antileukemic agents” (Med Chem Res, 2013).

Legend:
Assay type in all cases: functional, cell-based
[1] = test system: NB-4; test: Cytotoxicity against Homo sapiens (human) NB4 cells assessed as growth inhibition after 48 hr by MTT assay; conditions: NB-4, 48 h
[2] = test system: K562; test: Cytotoxicity against Homo sapiens (human) K562 cells assessed as growth inhibition after 48 hr by MTT assay; conditions: K562, 48 h
[3] = test system: HL-60; test: Cytotoxicity against Homo sapiens (human) HL60 cells assessed as growth inhibition after 48 hr by MTT assay; conditions: HL-60, 48 h

| Structure (SMILES) | IC50 [1] [µM] | IC50 [2] [µM] | IC50 [3] [µM] |
| --- | --- | --- | --- |
| CCCC(CCC)C(=O)OCCCOC(=O)c1ccc(C(=O)Nc2ccc3c(c2)C(C)(C)CCC3(C)C)cc1 | > 1000 | > 1000 | 835 |
| CCCC(CCC)C(=O)OCCNC(=O)c1ccc(C(=O)Nc2ccc3c(c2)C(C)(C)CCC3(C)C)cc1 | > 1000 | > 1000 | > 1000 |
| CCCC(=O)OCCCOC(=O)c1ccc(C(=O)Nc2ccc3c(c2)C(C)(C)CCC3(C)C)cc1 | 5.75 | 4.57 | 2.99 |
| Cc1cc2c(cc1C(=O)c1ccc(C(=O)OCCCOC(=O)c3ccc(C(=O)Nc4ccc5c(c4)C(C)(C)CCC5(C)C)cc3)cc1)C(C)(C)CCC2(C)C | 112 | 49.1 | 14.9 |
| Cc1cc2c(cc1C(=O)c1ccc(C(=O)OCCCCOC(=O)c3ccc(C(=O)Nc4ccc5c(c4)C(C)(C)CCC5(C)C)cc3)cc1)C(C)(C)CCC2(C)C | 147 | 84 | 24.7 |
| C=C(c1ccc(C(=O)OCCCOC(=O)c2ccc(C(=O)Nc3ccc4c(c3)C(C)(C)CCC4(C)C)cc2)cc1)c1cc2c(cc1C)C(C)(C)CCC2(C)C | 212 | > 1000 | 19.2 |
| CCCC(CCC)C(=O)OCCCCOC(=O)c1ccc(C(=O)Nc2ccc3c(c2)C(C)(C)CCC3(C)C)cc1 | > 1000 | > 1000 | 914 |
| CCCC(CCC)C(=O)OCCOC(=O)c1ccc(C(=O)Nc2ccc3c(c2)C(C)(C)CCC3(C)C)cc1 | > 1000 | 664 | 256 |
| CCCC(=O)OCCCCOC(=O)c1ccc(C(=O)Nc2ccc3c(c2)C(C)(C)CCC3(C)C)cc1 | 23.2 | 92.6 | 7.32 |
| C=C(c1ccc(C(=O)NCCNC(=O)c2ccc(C(=O)Nc3ccc4c(c3)C(C)(C)CCC4(C)C)cc2)cc1)c1cc2c(cc1C)C(C)(C)CCC2(C)C | 569 | 73.5 | 14.8 |
| C=C(c1ccc(C(=O)OCCCCOC(=O)c2ccc(C(=O)Nc3ccc4c(c3)C(C)(C)CCC4(C)C)cc2)cc1)c1cc2c(cc1C)C(C)(C)CCC2(C)C | 650 | > 1000 | 25.1 |
| C=C(c1ccc(C(=O)NCCOC(=O)c2ccc(C(=O)Nc3ccc4c(c3)C(C)(C)CCC4(C)C)cc2)cc1)c1cc2c(cc1C)C(C)(C)CCC2(C)C | > 1000 | > 1000 | 504 |
| C=C(c1ccc(C(=O)OCCOC(=O)c2ccc(C(=O)Nc3ccc4c(c3)C(C)(C)CCC4(C)C)cc2)cc1)c1cc2c(cc1C)C(C)(C)CCC2(C)C | > 1000 | 504 | 30.7 |
| CCCC(CCC)C(=O)NCCNC(=O)c1ccc(C(=O)Nc2ccc3c(c2)C(C)(C)CCC3(C)C)cc1 | 5.69 | 83.7 | 12.4 |
| CCCC(=O)OCCOC(=O)c1ccc(C(=O)Nc2ccc3c(c2)C(C)(C)CCC3(C)C)cc1 | 11 | 18.6 | 6.29 |
| Cc1cc2c(cc1C(=O)c1ccc(C(=O)NCCCCCCNC(=O)c3ccc(C(=O)Nc4ccc5c(c4)C(C)(C)CCC5(C)C)cc3)cc1)C(C)(C)CCC2(C)C | > 1000 | 95.4 | 95.4 |
| Cc1cc2c(cc1C(=O)c1ccc(C(=O)NCCNC(=O)c3ccc(C(=O)Nc4ccc5c(c4)C(C)(C)CCC5(C)C)cc3)cc1)C(C)(C)CCC2(C)C | 104 | 39.6 | 14.3 |
| CCCC(=O)NCCNC(=O)c1ccc(C(=O)Nc2ccc3c(c2)C(C)(C)CCC3(C)C)cc1 | 3.26 | 7.98 | 5.61 |
| Cc1cc2c(cc1C(=O)c1ccc(C(=O)OCCOC(=O)c3ccc(C(=O)Nc4ccc5c(c4)C(C)(C)CCC5(C)C)cc3)cc1)C(C)(C)CCC2(C)C | 67 | 39.9 | 6.83 |
| C=C(c1ccc(C(=O)NCCCCCCNC(=O)c2ccc(C(=O)Nc3ccc4c(c3)C(C)(C)CCC4(C)C)cc2)cc1)c1cc2c(cc1C)C(C)(C)CCC2(C)C | > 1000 | 294 | 70.7 |
| Cc1cc2c(cc1C(=O)c1ccc(C(=O)NCCOC(=O)c3ccc(C(=O)Nc4ccc5c(c4)C(C)(C)CCC5(C)C)cc3)cc1)C(C)(C)CCC2(C)C | 72.4 | 247 | 37.5 |
| CCCC(=O)OCCNC(=O)c1ccc(C(=O)Nc2ccc3c(c2)C(C)(C)CCC3(C)C)cc1 | 213 | 25.4 | 36.8 |
